Source: patent publication US20190125867A1, “THERAPEUTIC AGENT FOR SOLID CANCER” (IDAC THERANOSTICS, INC., priority 2014, published 2019)

Assays:
[1] = test system: mouse melanoma cell line B16F10; test: Tumor volume in C57BL/6 mice transplanted with melanoma cell line B16F10; type: in vivo; conditions: Day 15
Description: On Day −2 (two days before the cancer cell transplantation), Day 0 (=day of cancer cell transplantation), Day 3, Day 5, Day 9, or Day 12, 0.2 mg of an anti-CD4 antibody (GK1.5; an antibody known to be capable of causing depletion of CD4+ cells in the mouse body by the CDC activity; manufactured by BioXcell) was intraperitoneally administered at one time. The solid tumor diameter was measured on Day 14, and the tumor volume was calculated by short diameter×short diameter×long diameter×π/6.
On Day 5, 3.125 μg, 12.5 μg, 50 μg, or 200 μg of the anti-CD4 antibody was administered (negative control group: no antibody was administered).
The solid tumor diameter in each mouse was measured, and the tumor volume was calculated (short diameter×short diameter×long diameter×π/6).
Thereafter, antibody administration was carried out as follows (Day 0=day of cancer cell transplantation).
The tumor volume was calculated (short diameter×short diameter×long diameter×π/6) from the solid tumor diameter measured on Day 18.
The tumor volume was calculated (short diameter×short diameter×long diameter×π/6) from the solid tumor diameter measured on Day 15.
The tumor volume was calculated (short diameter×short diameter×long diameter×π/6) from the solid tumor diameter measured on Day 16.

[2] = test system: CD4+ cells in human peripheral blood mononuclear cells; test: ADCC activity assay (Promega ADCC activity assay kit, PBMCs + ADCC Bioassay Effector cells); type: cell-based; conditions: 12,500 PBMCs, 75,000 effector cells, 37° C. 6 hours; FIG. 1
Description: Measurement of the ADCC activity of IT1208 was carried out under the following conditions, according to the protocol for an ADCC activity assay kit sold by Promega. After gently mixing 12,500 PBMCs derived from a healthy individual, anti-CD4mAb (IT1208), and 75,000 ADCC Bioassay Effector cells contained in the Promega kit, the cells were cultured in a CO2 incubator at 37° C. for 6 hours. The luminescent reagent Bio-Glo reagent was added to the culture, and culturing was then continued at room temperature for 20 minutes, followed by measuring chemiluminescence using a luminescence plate reader.

[3] = Example 7 (small molecule anticancer agents), anti-CD4 0.2 mg Day 5, 9, OXA 10, GEM 20, CPA 10 mg/kg Day 5, 9, 12, 16, FIG. 23

| Molecule | growth of solid tumor relative to control group [1, 3] [%] | further results |
| --- | --- | --- |
| O=c1[nH]cc(F)c(=O)[nH]1 [5-FU] | – | growth of solid tumor relative to control group ([1]; Example 4, anti-CD4 0.2 mg once Day 5, anti-CD137 0.1 mg Day 5-9, 5-FU 50 mg/kg four times, FIG. 13): 36% |
| O=P1(N(CCCl)CCCl)NCCCO1 (stereo not shown) [CPA, Cyclophosphamide] | 75 | – |
| Nc1ccn([C@@H]2O[C@H](CO)[C@@H](O)C2(F)F)c(=O)n1 [GEM, Gemcitabine] | 63 | – |
| Rituximab | – | concentration at which ADCC activity began to be found [2]: ≥ 10 nM |
